For data set [1] the following is noted: 101.33 kPa, Liquid, Vibrating tube method.
A short description of data set [2]: refractive index (Na D-line) (dimensionless). To be noted: 101.33 kPa, Liquid, Standard Abbe refractometry.

Numbers after ± are expanded uncertainties.

For the compound `CCCOCC(C)OCC(C)O` (stereo not drawn) [1-(1-methyl-2-propoxyethoxy)-2-propanol], the mass density – broadly, mass per unit of volume – in data set [1] (293.15 K) amounted to 920.14 ± 1 kg/m3; in data set [1] (298.15 K) it was 915.65 ± 1 kg/m3. Also, the refractive index (usually the speed of light in vacuum divided by its phase velocity in the sample) in data set [2] (293.15 K) was found to be 1.4225 ± 0.0005; in data set [2] (298.15 K) it was 1.4214 ± 0.0005.
The matching figures for `CCCCCCCCCCCCCCCC` [hexadecane]: 773.5 ± 1 kg/m3, 769.93 ± 1 kg/m3, 1.4342 ± 0.0006 and 1.4326 ± 0.0006.

Source of the values: the NIST ThermoML archive (doi:10.1016/j.fluid.2013.03.002).
